PMC7897990, “TriTOX: A novel Trichomonas vaginalis assay platform for high-throughput screening of compound libraries” (International Journal for Parasitology: Drugs and Drug …, 2021)
Like-named read-outs stand apart in the source and are kept apart here.

Legend:
[1] = system: Trichomonas vaginalis G3 trophozoites; conditions: for T.vaginalis_Absorbance_Rep1 / T.vaginalis_Absorbance_Rep2: HTS, parasite screen at 1 µg/mL; for T.vaginalis_Absorbance_Rep1: replicate 1, raw absorbance; for T.vaginalis_Absorbance_Rep2: replicate 2, raw absorbance
[2] = system: nontumorigenic neonatal foreskin fibroblast (NFF) cell line; conditions: NFF_NS1 screen at 5 µg/mL
[3] = system: Trichomonas vaginalis G3 trophozoites; assay: microbe, parasite or virus in culture; conditions: 48 h
[4] = system: T. vaginalis; assay: Medium-throughput (MTS) confirmatory dose-response growth assay, T. vaginalis; format: cell-based, Trichomonas vaginalis
Procedure: (§1) For microtiter plate assays, trichomonads were grown in anaerobic conditions within GasPak EZ anaerobe pouches with fresh anaerobic sachets. Working reagent of the chromogen was phenol red (Sigma) in a 1% w/v working solution in phosphate buffered saline (PBS), which was filter sterilised. Chromogen absorbance was monitored at 570 nm on an absorbance microplate reader after plates were allowed to equilibrate in atmospheric conditions at room temperature for at least 5 min.
(§2) After absorbances were measured, data were processed as followed unless indicated otherwise in the text. […] Prism 8 (GraphPad) was used to plot dose-response curves and calculate IC50 values, using a least squares regression, log[inhibitor] vs normalised response (variable slope, four parameters) model. Where replicate plates were used, data for dose-response curves were plotted as the mean±SD of these replicates.
(§3) A selection of 17 compounds assayed in the high-throughput screen (HTS) for T. vaginalis which were available through BioAustralis were obtained for validation of inhibitory in/activity in our optimised medium-throughput format. For this, a 10-point serial dilution was used for drug-susceptibility testing to calculate IC50 values of ‘hit’ compounds. Mtz was used as a positive control. Each screen was performed with 3 technical replicates and a minimum of 2 biological replicates in both T. vaginalis and T. foetus using assay conditions of seeds of 10,000 cells/mL in 50 μL, with absorbance measured at 48 h. Dose response curves and IC50 were calculated for each compound as described above in Section 2.3.

[5] = system: T. foetus; assay: Medium-throughput (MTS) confirmatory dose-response growth assay, T. foetus; format: cell-based, Tritrichomonas foetus; conditions: Tritrichomonas foetus; 96-well, 10,000 cells/mL in 50 μL, 48 h, mean ± SEM; >10 = no appreciable activity at highest dose
Procedure: as §1, §2, §3

[6] = read-out: T.vaginalis_%inb_Rep1
[7] = read-out: T.vaginalis_%inb_Rep2

Compound	T.vaginalis_Absorbance_Rep1 [1]	T.vaginalis_Absorbance_Rep2 [1]	NFF_Activity [2]	inhibition of growth at 1 µg/mL [3, 6] [%]	inhibition of growth at 1 µg/mL [3, 7] [%]	selectivity: anti-trichomonal vs anti-tumour (NS-1) and cytotoxic (NFF) activity ([1]; single concentration screens of the same library, NS-1/NFF active if >25% inhibition)	activity against T. vaginalis in MTS, in words ([4]; 10-point dilution series, 96-well, 48 h)	IC50 ([4]; Trichomonas vaginalis, 96-well, 10,000 cells/mL in 50 μL, 48 h, mean ± SEM, >10 = no appreciable activity at highest dose) [µM]	species-specificity T. vaginalis vs T. foetus in MTS ([4]; comparison of MTS IC50 in both species)	IC50 [5] [µM]
CCCCc1ccc(C(=O)O)nc1 [Fusaric acid]	0.976	0.881	I (otherwise these were reported as inactive (I))	13.9	15.8	–	–	–	–	–
C[C@H]1C(=O)N2c3ccccc3[C@@]3(O)C[C@@H]4C(=O)N[C@](C)(c5nc6ccccc6c(=O)n54)N1[C@@H]23 [Fumiquinazoline D]	0.964	0.84	I (otherwise these were reported as inactive (I))	13.7	15.9	–	–	–	–	–
C/C(=C\c1csc(C)n1)[C@@H]1C[C@@H]2O[C@@H]2CCC[C@H](C)[C@H](O)[C@@H](C)C(=O)C(C)(C)[C@@H](O)CC(=O)O1 [Epothilone A]	2.11	1.991	I (otherwise these were reported as inactive (I))	71.4	87	–	–	–	–	–
CO[C@H]1C[C@@H]2CC[C@@H](C)[C@@](O)(O2)C(=O)C(=O)N2CCCC[C@H]2C(=O)O[C@H]([C@H](C)C[C@@H]2CC[C@@H](OCCO)[C@H](OC)C2)CC(=O)[C@H](C)/C=C(\C)[C@@H](O)[C@@H](OC)C(=O)[C@H](C)C[C@H](C)/C=C/C=C/C=C/1C [Everolimus]	0.983	0.76	I (otherwise these were reported as inactive (I))	14.8	10.1	–	–	–	–	–
CC(C)[C@H]1C(=O)O[C@H](C(C)C)C(=O)N(C)[C@@H](C(C)C)C(=O)O[C@H](C(C)C)C(=O)N(C)[C@@H](C(C)C)C(=O)O[C@H](C(C)C)C(=O)N1C [Enniatin B]	0.992	0.695	I (otherwise these were reported as inactive (I))	15.2	5.42	–	–	–	–	–
C/C(=C\c1csc(C)n1)[C@@H]1C[C@@H]2O[C@]2(C)CCC[C@H](C)[C@H](O)[C@@H](C)C(=O)C(C)(C)[C@@H](O)CC(=O)O1 [epothilone B, reference compound]	2.179	1.684	I (otherwise these were reported as inactive (I))	74.9	67.3	selective for T. vaginalis	–	–	–	–
COc1cc(C)c(C(=O)Oc2cc(C)c(C(=O)O)c(O)c2C)c(OC)c1C [Diffractaic acid]	0.965	0.79	I (otherwise these were reported as inactive (I))	13.8	12.3	–	–	–	–	–
C=Cc1cc(OC)c2c(c1)c(=O)oc1c2cc(OC)c2c(O)ccc([C@H]3O[C@H](C)[C@H](O)[C@H](O)[C@H]3O)c21 [Gilvocarcin V]	0.79	0.706	I (otherwise these were reported as inactive (I))	4.46	4.55	–	–	–	–	–
O=c1c(-c2ccc(O)cc2)coc2cc(O)cc(O)c12 [Genistein]	1.004	0.828	I (otherwise these were reported as inactive (I))	15.3	12.4	–	–	–	–	–
CCCCC[C@@H](O)[C@H]1C(=O)O[C@H](C)[C@@H](O)/C=C/C=C/C=C/C=C/C=C(\C)[C@@H](O)C[C@H](O)C[C@H](O)C[C@H](O)C[C@H](O)C[C@H](O)C[C@@H]1O [Filipin III]	1.003	0.794	I (otherwise these were reported as inactive (I))	15.8	12.6	–	–	–	–	–
CSC[S@+]([O-])C[C@H](CO)NC(=O)/C=C/c1c(C)[nH]c(=O)[nH]c1=O [Sparsomycin, sparsomycin]	–	–	–	–	–	–	true positives	2.3	selective activity against T. vaginalis but not T. foetus	> 10
